Reference: patent US20230085803A1, “METHOD FOR SEARCHING AND SCREENING FOR TARGET OF ANTI-CANCER AGENT USING NON-HUMAN ANIMAL MODEL HAVING NOG ESTABLISHED CANCER CELL LINE TRANSPLANTED THEREIN” (CHUGAI SEIYAKU KABUSHIKI KAISHA, priority 2009, published 2023)

Experiments:
[1] = tested on: moderately-differentiated adenocarcinoma (NOG-established colon cancer cell line); test: Histopathology of tumor masses after 5-FU administration, moderately-differentiated adenocarcinoma transplanted into NOG mice; type: in vivo, human; settings: NOG mice transplanted with an NOG-established colon cancer cell line, after administration of 5-fluorouracil; legend does not name the line
From the text: (§1) The present inventors used NOG-established cancer cell lines that had been established so as to meet the criterion that human colon cancer, stomach cancer, lung cancer, breast cancer, or pancreatic cancer can be transplanted or passaged over three or more generations in NOG mice (Fujii E. et al., Pathol Int. 2008; 58: 559-567). In this Example, NOG-established cancer cell lines were subcutaneously transplanted into NOG mice. 28 days after transplantation, the mice were dissected, and the implants were excised and fixed with 4% paraformaldehyde at 4° C. for 16 to 24 hours. Then, the fixed samples were embedded and sliced into thin section samples by the AMeX method (Fujii E. et al., Pathol Int. 2008; 58: 559-567). The tissues were stained by HE and immunohistochemistry (IHC). Anti-E-cadherin antibody (DakoCytomation) and anti-fibronectin antibody (DakoCytomation) were used as a primary antibody. The visualization was carried out by LSAB method using DAB (DAB Map kit, Roche Diagnostics).
(§2) Each NOG-established cancer cell line whose tissue morphology was (1) well-differentiated adenocarcinoma, (2) moderately-differentiated adenocarcinoma, or (3) poorly-differentiated adenocarcinoma in the donors' human colon cancer were subcutaneously transplanted into NOG mice. […]

[2] = tested on: Well-differentiated adenocarcinoma (NOG-established colon cancer cell line); test: Histopathology of tumor masses after 5-FU administration, well-differentiated adenocarcinoma transplanted into NOG mice; type: in vivo, human; settings: NOG mice transplanted with an NOG-established colon cancer cell line, after administration of 5-fluorouracil; legend does not name the line
From the text: as §1, §2

Q: Which results are given for `O=c1[nH]cc(F)c(=O)[nH]1` [5-FU, 5-fluorouracil]?
A: budding structures (histopathology, FIG. 13) [1]: decrease; poorly-differentiated glandular ducts (histopathology, FIG. 13) [2]: increase
